The source made the active and inactive calls. The rule behind the calls is not given here.
Key:
SR = test: Antiproliferative activity against human SR cells assessed as reduction in cell growth; format: functional, cell-based
[1] = molecular target: von Hippel-Lindau disease tumor suppressor/ALK tyrosine kinase receptor/Nucleophosmin (Homo sapiens, UniProt Q9UM73+P06748+P40337); test: Protac activity at VHL/NPM-ALK fusion protein in human SR cells assessed as degradation of ALK; format: cell-based
NCI-H2228 = test: Antiproliferative activity against human NCI-H2228 cells expressing EML4-ALK assessed as reduction in cell viability incubated for 72 hrs by CCK8 assay; format: functional, cell-based; settings: NCI-H2228, 72 h
cells = settings: Homo sapiens, NCI-H1688
Description: Antiproliferative activity against human NCI-H1688 cells assessed as inhibition of cell proliferation

[2] = molecular target: NPM/ALK (Nucleophosmin/ALK tyrosine kinase receptor) (Homo sapiens) (UniProt Q9UM73+P06748); test: Induction of NPM-ALK fusion protein degradation in human SR cells; format: cell-based
NCI-H69 = test: Antiproliferative activity against human NCI-H69 cells assessed as inhibition of cell proliferation; format: functional, cell-based

Sequence of von Hippel-Lindau disease tumor suppressor/ALK tyrosine kinase receptor/Nucleophosmin (Q9UM73 whole entry, the tested form may be a part): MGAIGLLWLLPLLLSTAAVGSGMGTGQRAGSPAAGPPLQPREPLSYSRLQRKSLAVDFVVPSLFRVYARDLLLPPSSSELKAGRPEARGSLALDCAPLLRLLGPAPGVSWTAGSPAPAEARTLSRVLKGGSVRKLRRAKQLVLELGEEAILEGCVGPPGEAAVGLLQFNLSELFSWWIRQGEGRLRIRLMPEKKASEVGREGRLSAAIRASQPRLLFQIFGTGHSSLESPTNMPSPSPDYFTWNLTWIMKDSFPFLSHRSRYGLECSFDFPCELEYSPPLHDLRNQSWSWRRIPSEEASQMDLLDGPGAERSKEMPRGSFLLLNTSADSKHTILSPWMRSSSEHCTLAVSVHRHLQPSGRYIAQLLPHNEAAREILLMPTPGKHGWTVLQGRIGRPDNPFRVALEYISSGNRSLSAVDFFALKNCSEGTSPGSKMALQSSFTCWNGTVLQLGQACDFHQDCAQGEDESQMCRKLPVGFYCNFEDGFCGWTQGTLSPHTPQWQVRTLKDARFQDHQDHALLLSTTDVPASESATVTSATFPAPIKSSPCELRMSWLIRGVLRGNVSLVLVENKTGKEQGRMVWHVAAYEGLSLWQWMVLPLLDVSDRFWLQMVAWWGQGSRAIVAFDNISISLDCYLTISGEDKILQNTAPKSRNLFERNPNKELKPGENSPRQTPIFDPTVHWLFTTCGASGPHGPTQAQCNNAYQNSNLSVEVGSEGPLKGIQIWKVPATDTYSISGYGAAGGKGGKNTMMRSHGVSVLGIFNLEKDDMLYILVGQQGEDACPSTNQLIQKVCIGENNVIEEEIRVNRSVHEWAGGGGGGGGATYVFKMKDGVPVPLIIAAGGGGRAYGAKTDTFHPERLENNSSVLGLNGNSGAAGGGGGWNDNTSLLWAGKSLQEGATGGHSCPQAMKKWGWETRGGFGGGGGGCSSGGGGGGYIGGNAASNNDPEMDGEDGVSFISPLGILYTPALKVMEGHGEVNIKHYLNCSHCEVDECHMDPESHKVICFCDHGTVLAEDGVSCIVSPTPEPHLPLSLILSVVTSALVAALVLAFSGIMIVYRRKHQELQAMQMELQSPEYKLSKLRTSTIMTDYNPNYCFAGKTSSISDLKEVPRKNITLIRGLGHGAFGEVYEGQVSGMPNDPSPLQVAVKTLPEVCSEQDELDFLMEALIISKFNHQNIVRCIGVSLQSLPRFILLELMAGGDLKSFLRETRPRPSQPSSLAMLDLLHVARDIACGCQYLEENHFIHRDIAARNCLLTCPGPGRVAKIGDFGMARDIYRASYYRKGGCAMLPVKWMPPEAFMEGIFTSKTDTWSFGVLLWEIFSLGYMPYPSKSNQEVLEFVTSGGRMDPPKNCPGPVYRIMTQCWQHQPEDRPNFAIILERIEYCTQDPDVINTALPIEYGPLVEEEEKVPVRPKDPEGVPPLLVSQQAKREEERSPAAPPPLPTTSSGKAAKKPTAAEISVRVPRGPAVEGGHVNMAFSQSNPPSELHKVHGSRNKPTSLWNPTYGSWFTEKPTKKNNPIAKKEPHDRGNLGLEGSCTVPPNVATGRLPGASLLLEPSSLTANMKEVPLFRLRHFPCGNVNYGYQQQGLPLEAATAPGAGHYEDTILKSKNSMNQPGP
Sequence of von Hippel-Lindau disease tumor suppressor/ALK tyrosine kinase receptor/Nucleophosmin (P06748 whole entry, the tested form may be a part): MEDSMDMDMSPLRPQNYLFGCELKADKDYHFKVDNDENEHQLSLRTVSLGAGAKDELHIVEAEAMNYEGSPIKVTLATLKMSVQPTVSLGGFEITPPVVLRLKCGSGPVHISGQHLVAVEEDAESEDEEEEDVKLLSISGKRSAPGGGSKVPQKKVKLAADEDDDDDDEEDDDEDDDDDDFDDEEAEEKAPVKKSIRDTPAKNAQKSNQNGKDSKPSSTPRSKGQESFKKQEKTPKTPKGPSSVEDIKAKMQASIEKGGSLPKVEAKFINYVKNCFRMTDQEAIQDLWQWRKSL
Sequence of von Hippel-Lindau disease tumor suppressor/ALK tyrosine kinase receptor/Nucleophosmin (P40337 whole entry, the tested form may be a part): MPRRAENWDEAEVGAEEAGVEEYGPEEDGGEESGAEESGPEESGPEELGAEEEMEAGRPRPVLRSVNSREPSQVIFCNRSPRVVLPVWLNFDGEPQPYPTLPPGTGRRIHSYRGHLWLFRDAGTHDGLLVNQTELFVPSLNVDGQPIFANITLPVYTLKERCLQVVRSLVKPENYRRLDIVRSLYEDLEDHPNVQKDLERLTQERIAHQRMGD
Sequence of NPM/ALK (Nucleophosmin/ALK tyrosine kinase receptor) (Homo sapiens) (P06748 whole entry partner, the tested form may be a part): as the sequence (P06748 whole entry, the tested form may be a part) above
Sequence of NPM/ALK (Nucleophosmin/ALK tyrosine kinase receptor) (Homo sapiens) (Q9UM73 19-1620 limits assumed): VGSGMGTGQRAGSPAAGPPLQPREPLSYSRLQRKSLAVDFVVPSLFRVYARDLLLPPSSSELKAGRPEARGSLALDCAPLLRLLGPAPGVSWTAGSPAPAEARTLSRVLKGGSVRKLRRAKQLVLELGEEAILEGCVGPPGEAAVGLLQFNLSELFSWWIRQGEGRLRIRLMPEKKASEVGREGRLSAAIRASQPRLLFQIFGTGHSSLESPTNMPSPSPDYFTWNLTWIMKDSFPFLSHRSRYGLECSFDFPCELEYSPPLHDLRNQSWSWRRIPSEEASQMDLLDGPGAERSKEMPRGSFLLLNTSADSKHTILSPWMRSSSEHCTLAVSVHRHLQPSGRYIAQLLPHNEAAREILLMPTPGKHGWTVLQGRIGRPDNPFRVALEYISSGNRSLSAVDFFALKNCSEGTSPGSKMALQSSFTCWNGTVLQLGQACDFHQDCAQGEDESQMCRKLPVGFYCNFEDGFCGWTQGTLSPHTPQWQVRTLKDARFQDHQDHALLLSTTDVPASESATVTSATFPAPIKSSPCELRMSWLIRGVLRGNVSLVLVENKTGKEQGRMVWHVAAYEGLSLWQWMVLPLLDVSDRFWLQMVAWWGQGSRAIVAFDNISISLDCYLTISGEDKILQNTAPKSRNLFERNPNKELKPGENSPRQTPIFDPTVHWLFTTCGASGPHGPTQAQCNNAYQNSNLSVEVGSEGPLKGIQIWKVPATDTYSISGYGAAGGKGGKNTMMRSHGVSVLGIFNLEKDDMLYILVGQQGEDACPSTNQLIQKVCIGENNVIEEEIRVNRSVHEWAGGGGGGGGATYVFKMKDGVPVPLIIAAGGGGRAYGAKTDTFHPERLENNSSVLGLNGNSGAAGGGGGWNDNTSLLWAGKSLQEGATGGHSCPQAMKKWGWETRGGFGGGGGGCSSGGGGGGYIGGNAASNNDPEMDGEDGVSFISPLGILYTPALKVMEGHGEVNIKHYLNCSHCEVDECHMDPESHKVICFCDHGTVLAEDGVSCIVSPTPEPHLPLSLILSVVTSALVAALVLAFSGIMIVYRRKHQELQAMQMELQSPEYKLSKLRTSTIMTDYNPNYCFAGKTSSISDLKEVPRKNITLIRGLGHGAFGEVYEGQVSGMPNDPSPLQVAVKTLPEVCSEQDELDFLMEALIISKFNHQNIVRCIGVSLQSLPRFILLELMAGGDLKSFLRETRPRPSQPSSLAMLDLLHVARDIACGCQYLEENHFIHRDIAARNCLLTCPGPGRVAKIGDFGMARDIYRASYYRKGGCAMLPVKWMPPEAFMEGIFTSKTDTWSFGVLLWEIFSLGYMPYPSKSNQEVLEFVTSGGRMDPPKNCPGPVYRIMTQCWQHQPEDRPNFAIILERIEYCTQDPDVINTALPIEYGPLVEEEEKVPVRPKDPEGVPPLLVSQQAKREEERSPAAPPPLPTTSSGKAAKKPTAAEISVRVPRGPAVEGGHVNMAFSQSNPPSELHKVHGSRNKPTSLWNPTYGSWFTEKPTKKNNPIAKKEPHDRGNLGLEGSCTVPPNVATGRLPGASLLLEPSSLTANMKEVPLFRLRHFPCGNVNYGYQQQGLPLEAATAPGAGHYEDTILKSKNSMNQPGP

## COc1cc(N2CCN(C(=O)CCC(=O)N[C@H](C(=O)N3C[C@H](O)C[C@H]3C(=O)NCc3ccc(-c4scnc4C)cc3)C(C)(C)C)CC2)ccc1Nc1ncc(Cl)c(Nc2ccccc2P(C)(C)=O)n1
SR
  Activity: Active

## COc1cc(N2CCN(C(=O)CCCCCC(=O)N[C@H](C(=O)N3C[C@H](O)C[C@H]3C(=O)NCc3ccc(-c4scnc4C)cc3)C(C)(C)C)CC2)ccc1Nc1ncc(Cl)c(Nc2ccccc2P(C)(C)=O)n1
SR
  Activity: Active

## COc1cc(N2CCC(NC(=O)CCCC(=O)N[C@H](C(=O)N3C[C@H](O)C[C@H]3C(=O)NCc3ccc(-c4scnc4C)cc3)C(C)(C)C)CC2)ccc1Nc1ncc(Cl)c(Nc2ccccc2P(C)(C)=O)n1
SR
  Activity: Active

## COc1cc(N2CCC(N3CCN(C(=O)CCCCC(=O)N[C@H](C(=O)N4C[C@H](O)C[C@H]4C(=O)NCc4ccc(-c5scnc5C)cc4)C(C)(C)C)CC3)CC2)ccc1Nc1ncc(Cl)c(Nc2ccccc2P(C)(C)=O)n1
SR
  Activity: Active

## COc1cc(N2CCC(NC(=O)CCOCCOCCC(=O)N[C@H](C(=O)N3C[C@H](O)C[C@H]3C(=O)NCc3ccc(-c4scnc4C)cc3)C(C)(C)C)CC2)ccc1Nc1ncc(Cl)c(Nc2ccccc2P(C)(C)=O)n1
SR
  Activity: inactive

## COc1cc(N2CCC(N3CCN(C(=O)CCCCCC(=O)N[C@H](C(=O)N4C[C@H](O)C[C@H]4C(=O)NCc4ccc(-c5scnc5C)cc4)C(C)(C)C)CC3)CC2)ccc1Nc1ncc(Cl)c(Nc2ccccc2P(C)(C)=O)n1
SR
  Activity: Active

## COc1cc(N2CCC(N3CCN(C(=O)CCCCCCCCC(=O)N[C@H](C(=O)N4C[C@H](O)C[C@H]4C(=O)NCc4ccc(-c5scnc5C)cc4)C(C)(C)C)CC3)CC2)ccc1Nc1ncc(Cl)c(Nc2ccccc2P(C)(C)=O)n1
[1]
  DC50: 7.5 nM
SR
  Activity: Active

## COc1cc(N2CCC(NC(=O)CCOCCOCCOCCOCCC(=O)N[C@H](C(=O)N3C[C@H](O)C[C@H]3C(=O)NCc3ccc(-c4scnc4C)cc3)C(C)(C)C)CC2)ccc1Nc1ncc(Cl)c(Nc2ccccc2P(C)(C)=O)n1
SR
  Activity: inactive

## COc1cc(N2CCN(C(=O)CCCCCCC(=O)N[C@H](C(=O)N3C[C@H](O)C[C@H]3C(=O)NCc3ccc(-c4scnc4C)cc3)C(C)(C)C)CC2)ccc1Nc1ncc(Cl)c(Nc2ccccc2P(C)(C)=O)n1
[1]
  DC50: > 50 nM
SR
  Activity: Active

## COc1cc(N2CCC(N3CCN(C(=O)CCC(=O)N[C@H](C(=O)N4C[C@H](O)C[C@H]4C(=O)NCc4ccc(-c5scnc5C)cc4)C(C)(C)C)CC3)CC2)ccc1Nc1ncc(Cl)c(Nc2ccccc2P(C)(C)=O)n1
SR
  Activity: Active

## COc1cc(N2CCN(C(=O)CCCC(=O)N[C@H](C(=O)N3C[C@H](O)C[C@H]3C(=O)NCc3ccc(-c4scnc4C)cc3)C(C)(C)C)CC2)ccc1Nc1ncc(Cl)c(Nc2ccccc2P(C)(C)=O)n1
SR
  Activity: Active

## COc1cc(N2CCC(NC(=O)CCCCCCCC(=O)N[C@H](C(=O)N3C[C@H](O)C[C@H]3C(=O)NCc3ccc(-c4scnc4C)cc3)C(C)(C)C)CC2)ccc1Nc1ncc(Cl)c(Nc2ccccc2P(C)(C)=O)n1
[1]
  DC50: 20.9 nM
SR
  Activity: Active

## COc1cc(N2CCC(N3CCN(C)CC3)CC2)ccc1Nc1ncc(Cl)c(Nc2ccccc2P(C)(C)=O)n1 [BRIGATINIB]
NCI-H2228
  IC50: 58.2 nM
cells
  IC50: 691 nM
[2]
  Activity: inactive
NCI-H69
  IC50: 2600 nM
SR
  IC50: 2.7 nM

## COc1cc(N2CCC(N3CCN(C(=O)CCCCCCC(=O)N[C@H](C(=O)N4C[C@H](O)C[C@H]4C(=O)NCc4ccc(-c5scnc5C)cc4)C(C)(C)C)CC3)CC2)ccc1Nc1ncc(Cl)c(Nc2ccccc2P(C)(C)=O)n1
[1]
  DC50: 11.4 nM
SR
  Activity: Active

## COc1cc(N2CCC(N3CCN(C(=O)CCOCCOCCOCCOCCC(=O)N[C@H](C(=O)N4C[C@H](O)C[C@H]4C(=O)NCc4ccc(-c5scnc5C)cc4)C(C)(C)C)CC3)CC2)ccc1Nc1ncc(Cl)c(Nc2ccccc2P(C)(C)=O)n1
SR
  Activity: inactive

## COc1cc(N2CCC(N3CCN(C(=O)CCCCCCCC(=O)N[C@H](C(=O)N4C[C@H](O)C[C@H]4C(=O)NCc4ccc(-c5scnc5C)cc4)C(C)(C)C)CC3)CC2)ccc1Nc1ncc(Cl)c(Nc2ccccc2P(C)(C)=O)n1
[1]
  DC50: 25.1 nM
SR
  Activity: Active

## COc1cc(N2CCN(C(=O)CCCCCCCC(=O)N[C@H](C(=O)N3C[C@H](O)C[C@H]3C(=O)NCc3ccc(-c4scnc4C)cc3)C(C)(C)C)CC2)ccc1Nc1ncc(Cl)c(Nc2ccccc2P(C)(C)=O)n1
[1]
  DC50: 15 nM
SR
  Activity: Active

## COc1cc(N2CCC(N)CC2)ccc1Nc1ncc(Cl)c(Nc2ccccc2P(C)(C)=O)n1
[2]
  Activity: inactive
SR
  IC50: 1.7 nM

## COc1cc(N2CCN(C(=O)CCCCCCCCC(=O)N[C@H](C(=O)N3C[C@H](O)C[C@H]3C(=O)NCc3ccc(-c4scnc4C)cc3)C(C)(C)C)CC2)ccc1Nc1ncc(Cl)c(Nc2ccccc2P(C)(C)=O)n1
[1]
  DC50: > 50 nM
SR
  Activity: Active

## COc1cc(N2CCNCC2)ccc1Nc1ncc(Cl)c(Nc2ccccc2P(C)(C)=O)n1
SR
  IC50: 1.6 nM

## COc1cc(N2CCN(C(=O)CCOCCOCCOCCOCCOCCC(=O)N[C@H](C(=O)N3C[C@H](O)C[C@H]3C(=O)NCc3ccc(-c4scnc4C)cc3)C(C)(C)C)CC2)ccc1Nc1ncc(Cl)c(Nc2ccccc2P(C)(C)=O)n1
SR
  Activity: inactive

## COc1cc(N2CCC(NC(=O)CCCCCCC(=O)N[C@H](C(=O)N3C[C@H](O)C[C@H]3C(=O)NCc3ccc(-c4scnc4C)cc3)C(C)(C)C)CC2)ccc1Nc1ncc(Cl)c(Nc2ccccc2P(C)(C)=O)n1
[1]
  DC50: 9.1 nM
SR
  Activity: Active

## COc1cc(N2CCC(N3CCN(C(=O)CCOCCOCCOCCOCCOCCC(=O)N[C@H](C(=O)N4C[C@H](O)C[C@H]4C(=O)NCc4ccc(-c5scnc5C)cc4)C(C)(C)C)CC3)CC2)ccc1Nc1ncc(Cl)c(Nc2ccccc2P(C)(C)=O)n1
SR
  Activity: inactive

## Cc1ncsc1-c1ccc(CNC(=O)[C@@H]2C[C@@H](O)CN2C(=O)[C@@H](NC(=O)CCCCCCCCCC(=O)O)C(C)(C)C)cc1
cells
  IC50: > 45000 nM
NCI-H69
  IC50: > 40000 nM

## COc1cc(N2CCC(NC(=O)CCCCCC(=O)N[C@H](C(=O)N3C[C@H](O)C[C@H]3C(=O)NCc3ccc(-c4scnc4C)cc3)C(C)(C)C)CC2)ccc1Nc1ncc(Cl)c(Nc2ccccc2P(C)(C)=O)n1
SR
  Activity: Active

## COc1cc(N2CCC(N3CCN(C(=O)CCCC(=O)N[C@H](C(=O)N4C[C@H](O)C[C@H]4C(=O)NCc4ccc(-c5scnc5C)cc4)C(C)(C)C)CC3)CC2)ccc1Nc1ncc(Cl)c(Nc2ccccc2P(C)(C)=O)n1
SR
  Activity: Active

## COc1cc(N2CCN(C(=O)CCOCCOCCOCCOCCC(=O)N[C@H](C(=O)N3C[C@H](O)C[C@H]3C(=O)NCc3ccc(-c4scnc4C)cc3)C(C)(C)C)CC2)ccc1Nc1ncc(Cl)c(Nc2ccccc2P(C)(C)=O)n1
SR
  Activity: inactive

## COc1cc(N2CCC(N3CCNCC3)CC2)ccc1Nc1ncc(Cl)c(Nc2ccccc2P(C)(C)=O)n1
[2]
  Activity: inactive
SR
  IC50: 6.8 nM

## COc1cc(N2CCC(NC(=O)CCC(=O)N[C@H](C(=O)N3C[C@H](O)C[C@H]3C(=O)NCc3ccc(-c4scnc4C)cc3)C(C)(C)C)CC2)ccc1Nc1ncc(Cl)c(Nc2ccccc2P(C)(C)=O)n1
SR
  Activity: Active

## COc1cc(N2CCN(C(=O)CCOCCOCCC(=O)N[C@H](C(=O)N3C[C@H](O)C[C@H]3C(=O)NCc3ccc(-c4scnc4C)cc3)C(C)(C)C)CC2)ccc1Nc1ncc(Cl)c(Nc2ccccc2P(C)(C)=O)n1
SR
  Activity: inactive

## COc1cc(N2CCN(C(=O)CCOCCOCCOCCC(=O)N[C@H](C(=O)N3C[C@H](O)C[C@H]3C(=O)NCc3ccc(-c4scnc4C)cc3)C(C)(C)C)CC2)ccc1Nc1ncc(Cl)c(Nc2ccccc2P(C)(C)=O)n1
SR
  Activity: inactive

## COc1cc(N2CCC(N3CCN(C(=O)CCOCCOCCOCCC(=O)N[C@H](C(=O)N4C[C@H](O)C[C@H]4C(=O)NCc4ccc(-c5scnc5C)cc4)C(C)(C)C)CC3)CC2)ccc1Nc1ncc(Cl)c(Nc2ccccc2P(C)(C)=O)n1
SR
  Activity: inactive

## COc1cc(N2CCC(N3CCN(C(=O)CCOCCOCCC(=O)N[C@H](C(=O)N4C[C@H](O)C[C@H]4C(=O)NCc4ccc(-c5scnc5C)cc4)C(C)(C)C)CC3)CC2)ccc1Nc1ncc(Cl)c(Nc2ccccc2P(C)(C)=O)n1
SR
  Activity: inactive

## COc1cc(N2CCC(NC(=O)CCOCCOCCOCCOCCOCCC(=O)N[C@H](C(=O)N3C[C@H](O)C[C@H]3C(=O)NCc3ccc(-c4scnc4C)cc3)C(C)(C)C)CC2)ccc1Nc1ncc(Cl)c(Nc2ccccc2P(C)(C)=O)n1
SR
  Activity: inactive

## COc1cc(N2CCC(NC(=O)CCCCCCCCC(=O)N[C@H](C(=O)N3C[C@H](O)C[C@H]3C(=O)NCc3ccc(-c4scnc4C)cc3)C(C)(C)C)CC2)ccc1Nc1ncc(Cl)c(Nc2ccccc2P(C)(C)=O)n1
[1]
  DC50: 7.2 nM
SR
  Activity: Active

## COc1cc(N2CCC(NC(=O)CCCCC(=O)N[C@H](C(=O)N3C[C@H](O)C[C@H]3C(=O)NCc3ccc(-c4scnc4C)cc3)C(C)(C)C)CC2)ccc1Nc1ncc(Cl)c(Nc2ccccc2P(C)(C)=O)n1
SR
  Activity: Active

## COc1cc(N2CCN(C(=O)CCCCC(=O)N[C@H](C(=O)N3C[C@H](O)C[C@H]3C(=O)NCc3ccc(-c4scnc4C)cc3)C(C)(C)C)CC2)ccc1Nc1ncc(Cl)c(Nc2ccccc2P(C)(C)=O)n1
SR
  Activity: Active

## COc1cc(N2CCC(NC(=O)CCOCCOCCOCCC(=O)N[C@H](C(=O)N3C[C@H](O)C[C@H]3C(=O)NCc3ccc(-c4scnc4C)cc3)C(C)(C)C)CC2)ccc1Nc1ncc(Cl)c(Nc2ccccc2P(C)(C)=O)n1
SR
  Activity: inactive

Reference: ChEMBL document CHEMBL4680228 (Eur J Med Chem, 2020)
